According to the supplement of paper PMC4862054:

Key:
Conditions in all cases: incubation time: 72 h
BT-549 [1] = test: normalised viability (% of control), CellTiter-Blue; higher = more viable cells (about 100 = DMSO control)
Summary of the method: (§1)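 Normalised viability is given for a single listed concentration of the series. In 384-well plates, breast cancer cell lines were incubated 72 h with compound, then read with CellTiter-Blue (2 h, 37 °C) at 560/590 nm. Per-plate scaling set vehicle to 100 and a positive kill control to 0, with Z'-factor quality control.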

CAL-120 [2] = test: as above
Summary of the method: as §1

CAL-148 [3] = test: as above
Summary of the method: as §1

CAL-51 [4] = test: as above
Summary of the method: as §1

CAL-85-1 [5] = test: as above
Summary of the method: as §1

DU-4475 [6] = test: as above
Summary of the method: as §1

HCC1143 [7] = test: as above
Summary of the method: as §1

HCC1599 [8] = test: as above
Summary of the method: as §1

HCC1937 [9] = test: as above
Summary of the method: as §1

BT-474 = test: drug sensitivity score (DSS), CellTiter-Glo (DSS (AUC-based score)); higher = stronger drug effect (viability inhibition or cytotoxicity); extreme values may be limits of the assay
Summary of the method: (§2)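 The drug sensitivity score reflects the area under a fitted dose-response curve. To obtain it, breast cancer cells in 20 µl suspension were seeded into 384-well plates containing compound at 5 concentrations, 10-fold apart over a compound-specific 10,000-fold range, and incubated 72 h. CellTox Green fluorescence (485/520 nm) was read first and CellTiter-Glo luminescence second, after 10 min at room temperature. Each plate was normalised to 0.1 % DMSO and a positive kill control.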

BT-549 [10] = test: as above
Summary of the method: as §2

CAL-120 [11] = test: as above
Summary of the method: as §2

CAL-148 [12] = test: as above
Summary of the method: as §2

CAL-51 [13] = test: as above
Summary of the method: as §2

CAL-85-1 [14] = test: as above
Summary of the method: as §2

DU-4475 [15] = test: as above
Summary of the method: as §2

HCC1143 [16] = test: as above
Summary of the method: as §2

HCC1599 [17] = test: as above
Summary of the method: as §2

HCC1937 [18] = test: as above
Summary of the method: as §2

HDQ-P1 = test: as above
Summary of the method: as §2

Hs578T = test: as above
Summary of the method: as §2

MCF-10A = test: as above
Summary of the method: as §2

MDA-MB-436 = test: as above
Summary of the method: as §2

MDA-MB-453 = test: as above
Summary of the method: as §2

MDA-MB-468 = test: as above
Summary of the method: as §2

MFM-223 = test: as above
Summary of the method: as §2

SK-BR-3 = test: as above
Summary of the method: as §2

| Structure (SMILES) | normalised viability (BT-549 [1]; 100 nM) | normalised viability (CAL-120 [2]; 100 nM) | drug sensitivity score (BT-474) | drug sensitivity score (BT-549 [10]) | drug sensitivity score (CAL-120 [11]) | drug sensitivity score (CAL-148 [12]) | drug sensitivity score (CAL-51 [13]) | drug sensitivity score (CAL-85-1 [14]) | drug sensitivity score (DU-4475 [15]) | drug sensitivity score (HCC1143 [16]) | drug sensitivity score (HCC1599 [17]) | drug sensitivity score (HCC1937 [18]) | drug sensitivity score (HDQ-P1) | drug sensitivity score (Hs578T) | drug sensitivity score (MCF-10A) | drug sensitivity score (MDA-MB-436) | drug sensitivity score (MDA-MB-453) | drug sensitivity score (MDA-MB-468) | drug sensitivity score (MFM-223) | drug sensitivity score (SK-BR-3) | other results |
| --- | --- | --- | --- | --- | --- | --- | --- | --- | --- | --- | --- | --- | --- | --- | --- | --- | --- | --- | --- | --- | --- |
| CN1CCN(c2ccc3nc(-c4c(N)c5c(F)cccc5[nH]c4=O)[nH]c3c2)CC1 [Dovitinib] | 90.5% | 86.4% | 0 | 0 | 0.000114 | 0 | 0 | 0 | 0 | 0 | 0 | 0 | 0 | 0 | 0 | 0 | 0 | 0 | 0 | 0 | normalised viability (CAL-148 [3]; 10 nM): 94.7%; normalised viability (CAL-51 [4]; 10 nM): 111%; normalised viability (CAL-85-1 [5]; 10 nM): 89.2%; normalised viability (DU-4475 [6]; 10 nM): 99.8%; normalised viability (HCC1143 [7]; 100 nM): 84.5%; normalised viability (HCC1599 [8]; 100 nM): 88.2%; normalised viability (HCC1937 [9]; 100 nM): 95.6% |
| C[C@@]1(C(=O)Nc2ccc(F)nc2)CCCN1c1nc(Nc2cc(C3CC3)n[nH]2)c2cccn2n1 | 109% | 91.8% | 9.15 | 9.6 | 10.3 | 0 | 9.26 | 10.7 | 5.67 | 6.03 | 5.62 | 0 | 15.8 | 3.38 | 25 | 7.17 | 0 | 16.4 | 10.2 | 6.12 | normalised viability (CAL-148 [3]; 10 nM): 94%; normalised viability (CAL-51 [4]; 10 nM): 97%; normalised viability (CAL-85-1 [5]; 10 nM): 93.5%; normalised viability (DU-4475 [6]; 10 nM): 90.4%; normalised viability (HCC1143 [7]; 100 nM): 72.8%; normalised viability (HCC1599 [8]; 100 nM): 73.3%; normalised viability (HCC1937 [9]; 100 nM): 88.3% |
| COC1=CC(c2cc3ccccc3[nH]2)=N/C1=C\c1[nH]c(C)cc1C [Obatoclax] | 62.9% | 25.9% | 7.09 | 5.4 | 0 | 0 | 4.52 | 4.01 | 0.576 | 0 | 0 | 7.4 | 0 | 0 | 0 | 1.64 | 2.69 | 3.12 | 0 | 1.08 | normalised viability (CAL-148 [3]; 10 nM): 87.7%; normalised viability (CAL-51 [4]; 10 nM): 109%; normalised viability (CAL-85-1 [5]; 10 nM): 89.4%; normalised viability (DU-4475 [6]; 10 nM): 87.7%; normalised viability (HCC1143 [7]; 100 nM): 78%; normalised viability (HCC1599 [8]; 100 nM): 93.4%; normalised viability (HCC1937 [9]; 100 nM): 45.9% |
| CS(=O)(=O)OCCCCOS(C)(=O)=O [Busulfan] |  |  | 0.000307 | 0 | 0 | 0 | 0 | 0 | 0 | 0 | 0 | 0 | 0 | 0 | 0 | 0 | 0 | 0 | 0 | 0 | normalised viability (BT-549 [1]; 1000 nM): 85.1%; normalised viability (CAL-120 [2]; 1000 nM): 113%; normalised viability (CAL-148 [3]; 100 nM): 106%; normalised viability (CAL-51 [4]; 100 nM): 95.3%; normalised viability (CAL-85-1 [5]; 100 nM): 115%; normalised viability (DU-4475 [6]; 100 nM): 91.4%; normalised viability (HCC1143 [7]; 1000 nM): 124%; normalised viability (HCC1599 [8]; 1000 nM): 101%; normalised viability (HCC1937 [9]; 1000 nM): 94.6% |
| CCS(=O)(=O)c1cccc(-c2cc(C(=O)NC3CCN(C)CC3)c(C)c3[nH]c4ncc(C)cc4c23)c1 [TAK-901] |  |  | 6.57 | 6.76 | 4.67 | 0 | 0 | 0 | 0 | 4.84 | 0 | 0 | 3.52 | 1.14 | 7.18 | 2.45 | 0 | 12.3 | 5.76 | 0 | normalised viability (BT-549 [1]; 10 nM): 114%; normalised viability (CAL-120 [2]; 10 nM): 86.8%; normalised viability (CAL-148 [3]; 1 nM): 113%; normalised viability (CAL-51 [4]; 1 nM): 91.7%; normalised viability (CAL-85-1 [5]; 1 nM): 98%; normalised viability (DU-4475 [6]; 1 nM): 97%; normalised viability (HCC1143 [7]; 10 nM): 87.6%; normalised viability (HCC1599 [8]; 10 nM): 103%; normalised viability (HCC1937 [9]; 10 nM): 120% |
